From PubChem BioAssay AID2060885 (Molecular Pharmacology Branch, DTP, NCI, 2025)

Tested on: NCI-H23 complex spheroids with HUVEC/MSC, viability
Assay: Anticancer human tumor NCI-H23 cell line growth inhibition [RAS];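 note: spheroids exposed to compound for 7 days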;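 for viability, T/C: 100% = DMSO vehicle control viability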
Conditions: for IC50: curve of first compound; for viability, T/C: stronger effect = lower value
Summary of the method: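 Multi-cell-type spheroids: tumor cells plus HUVEC endothelial cells and mesenchymal stem cells. RAS-pathway inhibitors were combined with targeted agents, each dosed in half-log steps down from clinical Cmax, or from 10 microM when Cmax was unknown.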

`CC1(C)CCC(Nc2ncc(C(F)(F)F)c(-c3c[nH]c4c(P(C)(C)=O)c(C#N)ccc34)n2)CN1` (stereo unspecified) + CCn1c(-c2cc(N3CCN(C)CC3)cnc2C(C)OC)c2c3cc(ccc31)-c1csc(n1)CC(NC(=O)C1CC1C)C(=O)N1CCCC(N1)C(=O)OCC(C)(C)C2 showed an IC50 (second compound 0.000949 µM) of less than 0.949 nM, an IC50 (second compound 0.003 µM) of less than 0.949 nM and an IC50 (second compound 0.00949 µM) of less than 0.949 nM. The IC50 (second compound 0.03 µM) was less than 0.949 nM, the IC50 (second compound 0.0949 µM) was less than 0.949 nM and the IC50 (second compound 0.3 µM) was less than 0.949 nM. The viability, T/C (second compound 0.000949 µM, first compound 0.000949 µM) was 33.9%, the viability, T/C (second compound 0.000949 µM, first compound 0.003 µM) was 29.4% and the viability, T/C (second compound 0.000949 µM, first compound 0.00949 µM) was 21.1%. For the same compound, the viability, T/C (second compound 0.000949 µM, first compound 0.03 µM) was 26.6%, the viability, T/C (second compound 0.000949 µM, first compound 0.0949 µM) was 21% and the viability, T/C (second compound 0.000949 µM, first compound 0.3 µM) was 14.5%. The viability, T/C (second compound 0.003 µM, first compound 0.000949 µM) was 26.6%, the viability, T/C (second compound 0.003 µM, first compound 0.003 µM) was 21.2% and the viability, T/C (second compound 0.003 µM, first compound 0.00949 µM) was 16.8%. It also gave a viability, T/C (second compound 0.003 µM, first compound 0.03 µM) of 18.4%, a viability, T/C (second compound 0.003 µM, first compound 0.0949 µM) of 16.7% and a viability, T/C (second compound 0.003 µM, first compound 0.3 µM) of 12.2%. It also gave a viability, T/C (second compound 0.00949 µM, first compound 0.000949 µM) of 21.4%, a viability, T/C (second compound 0.00949 µM, first compound 0.003 µM) of 16.8% and a viability, T/C (second compound 0.00949 µM, first compound 0.00949 µM) of 16.1%. For the same compound, the viability, T/C (second compound 0.00949 µM, first compound 0.03 µM) was 15.9%, the viability, T/C (second compound 0.00949 µM, first compound 0.0949 µM) was 12.8% and the viability, T/C (second compound 0.00949 µM, first compound 0.3 µM) was 11.8%. For the same compound, the viability, T/C (second compound 0.03 µM, first compound 0.000949 µM) was 17.6%, the viability, T/C (second compound 0.03 µM, first compound 0.003 µM) was 14.4% and the viability, T/C (second compound 0.03 µM, first compound 0.00949 µM) was 13.4%. It also gave a viability, T/C (second compound 0.03 µM, first compound 0.03 µM) of 12.8%, a viability, T/C (second compound 0.03 µM, first compound 0.0949 µM) of 10.5% and a viability, T/C (second compound 0.03 µM, first compound 0.3 µM) of 12.6%. For the same compound, the viability, T/C (second compound 0.0949 µM, first compound 0.000949 µM) was 15%, the viability, T/C (second compound 0.0949 µM, first compound 0.003 µM) was 13.5% and the viability, T/C (second compound 0.0949 µM, first compound 0.00949 µM) was 10.5%. The viability, T/C (second compound 0.0949 µM, first compound 0.03 µM) was 10.9%, the viability, T/C (second compound 0.0949 µM, first compound 0.0949 µM) was 9.11% and the viability, T/C (second compound 0.0949 µM, first compound 0.3 µM) was 10.1%. It also gave a viability, T/C (second compound 0.3 µM, first compound 0.000949 µM) of 13.1%, a viability, T/C (second compound 0.3 µM, first compound 0.003 µM) of 10.8% and a viability, T/C (second compound 0.3 µM, first compound 0.00949 µM) of 10.7%. For the same compound, the viability, T/C (second compound 0.3 µM, first compound 0.03 µM) was 9.9%, the viability, T/C (second compound 0.3 µM, first compound 0.0949 µM) was 9.8% and the viability, T/C (second compound 0.3 µM, first compound 0.3 µM) was 9.04%.
Compound `CCN1CCN(Cc2ccc(Nc3ncc(F)c(-c4cc(F)c5nc(C)n(C(C)C)c5c4)n3)nc2)CC1` + C=CC(=O)N1CCN(c2nc(OCC3CCCN3C)nc3c(F)c(-c4nc(N)cc(C)c4C(F)(F)F)c(Cl)cc23)C(C)C1 has an IC50 (second compound 0.00316 µM) of 15.3 nM, an IC50 (second compound 0.01 µM) of 3.55 nM and an IC50 (second compound 0.0316 µM) of less than 3.16 nM. It also gave an IC50 (second compound 0.1 µM) of less than 3.16 nM, an IC50 (second compound 0.316 µM) of less than 3.16 nM and an IC50 (second compound 1 µM) of less than 3.16 nM. The viability, T/C (second compound 0.00316 µM, first compound 0.00316 µM) was 55.6%, the viability, T/C (second compound 0.00316 µM, first compound 0.01 µM) was 58.2% and the viability, T/C (second compound 0.00316 µM, first compound 0.0316 µM) was 38.2%. It also gave a viability, T/C (second compound 0.00316 µM, first compound 0.1 µM) of 26.9%, a viability, T/C (second compound 0.00316 µM, first compound 0.316 µM) of 26.1% and a viability, T/C (second compound 0.00316 µM, first compound 1 µM) of 23.9%. The viability, T/C (second compound 0.01 µM, first compound 0.00316 µM) was 49.9%, the viability, T/C (second compound 0.01 µM, first compound 0.01 µM) was 46.7% and the viability, T/C (second compound 0.01 µM, first compound 0.0316 µM) was 30.1%. The viability, T/C (second compound 0.01 µM, first compound 0.1 µM) was 23.6%, the viability, T/C (second compound 0.01 µM, first compound 0.316 µM) was 17.4% and the viability, T/C (second compound 0.01 µM, first compound 1 µM) was 18.6%. For the same compound, the viability, T/C (second compound 0.0316 µM, first compound 0.00316 µM) was 44.4%, the viability, T/C (second compound 0.0316 µM, first compound 0.01 µM) was 37.3% and the viability, T/C (second compound 0.0316 µM, first compound 0.0316 µM) was 24.1%. It also gave a viability, T/C (second compound 0.0316 µM, first compound 0.1 µM) of 21.8%, a viability, T/C (second compound 0.0316 µM, first compound 0.316 µM) of 17.2% and a viability, T/C (second compound 0.0316 µM, first compound 1 µM) of 20.1%. The viability, T/C (second compound 0.1 µM, first compound 0.00316 µM) was 36.4%, the viability, T/C (second compound 0.1 µM, first compound 0.01 µM) was 29.3% and the viability, T/C (second compound 0.1 µM, first compound 0.0316 µM) was 23.2%. The viability, T/C (second compound 0.1 µM, first compound 0.1 µM) was 19.4%, the viability, T/C (second compound 0.1 µM, first compound 0.316 µM) was 19.4% and the viability, T/C (second compound 0.1 µM, first compound 1 µM) was 18.3%. The viability, T/C (second compound 0.316 µM, first compound 0.00316 µM) was 34.3%, the viability, T/C (second compound 0.316 µM, first compound 0.01 µM) was 31.7% and the viability, T/C (second compound 0.316 µM, first compound 0.0316 µM) was 21.9%. It also gave a viability, T/C (second compound 0.316 µM, first compound 0.1 µM) of 20.5%, a viability, T/C (second compound 0.316 µM, first compound 0.316 µM) of 16.6% and a viability, T/C (second compound 0.316 µM, first compound 1 µM) of 17.2%. The viability, T/C (second compound 1 µM, first compound 0.00316 µM) was 28.7%, the viability, T/C (second compound 1 µM, first compound 0.01 µM) was 33.8% and the viability, T/C (second compound 1 µM, first compound 0.0316 µM) was 26.2%. The viability, T/C (second compound 1 µM, first compound 0.1 µM) was 20.1%, the viability, T/C (second compound 1 µM, first compound 0.316 µM) was 17.8% and the viability, T/C (second compound 1 µM, first compound 1 µM) was 17.1%.
For `C=CC(=O)Nc1cc(Nc2nccc(-c3cn(C)c4ccccc34)n2)c(OC)cc1N(C)CCN(C)C` + CCn1c(-c2cccnc2C(C)OC)c2c3cc(ccc31)N1CCOC(CC(NC(=O)C(C(C)C)N(C)C(=O)C3(F)CCN(C(=O)C#CC(C)(C)N(C)C)CC3)C(=O)N3CCCC(N3)C(=O)OCC(C)(C)C2)C1, the IC50 (second compound 0.000949 µM) was less than 3.16 nM, the IC50 (second compound 0.003 µM) was 719 nM and the IC50 (second compound 0.00949 µM) was less than 3.16 nM. It also gave an IC50 (second compound 0.03 µM) of less than 3.16 nM, an IC50 (second compound 0.0949 µM) of less than 3.16 nM and an IC50 (second compound 0.3 µM) of less than 3.16 nM. For the same compound, the viability, T/C (second compound 0.000949 µM, first compound 0.00316 µM) was 38.8%, the viability, T/C (second compound 0.000949 µM, first compound 0.01 µM) was 38.4% and the viability, T/C (second compound 0.000949 µM, first compound 0.0316 µM) was 29%. It also gave a viability, T/C (second compound 0.000949 µM, first compound 0.1 µM) of 28.6%, a viability, T/C (second compound 0.000949 µM, first compound 0.316 µM) of 25.8% and a viability, T/C (second compound 0.000949 µM, first compound 1 µM) of 20.1%. For the same compound, the viability, T/C (second compound 0.003 µM, first compound 0.00316 µM) was 99.9%, the viability, T/C (second compound 0.003 µM, first compound 0.01 µM) was 44.7% and the viability, T/C (second compound 0.003 µM, first compound 0.0316 µM) was 101%. The viability, T/C (second compound 0.003 µM, first compound 0.1 µM) was 120%, the viability, T/C (second compound 0.003 µM, first compound 0.316 µM) was 102% and the viability, T/C (second compound 0.003 µM, first compound 1 µM) was 32.5%. The viability, T/C (second compound 0.00949 µM, first compound 0.00316 µM) was 35.5%, the viability, T/C (second compound 0.00949 µM, first compound 0.01 µM) was 28.9% and the viability, T/C (second compound 0.00949 µM, first compound 0.0316 µM) was 31.1%. It also gave a viability, T/C (second compound 0.00949 µM, first compound 0.1 µM) of 30.5%, a viability, T/C (second compound 0.00949 µM, first compound 0.316 µM) of 23.9% and a viability, T/C (second compound 0.00949 µM, first compound 1 µM) of 22.2%. The viability, T/C (second compound 0.03 µM, first compound 0.00316 µM) was 31.2%, the viability, T/C (second compound 0.03 µM, first compound 0.01 µM) was 26.7% and the viability, T/C (second compound 0.03 µM, first compound 0.0316 µM) was 30.9%. For the same compound, the viability, T/C (second compound 0.03 µM, first compound 0.1 µM) was 30.9%, the viability, T/C (second compound 0.03 µM, first compound 0.316 µM) was 18.3% and the viability, T/C (second compound 0.03 µM, first compound 1 µM) was 23.1%. The viability, T/C (second compound 0.0949 µM, first compound 0.00316 µM) was 27.1%, the viability, T/C (second compound 0.0949 µM, first compound 0.01 µM) was 28.6% and the viability, T/C (second compound 0.0949 µM, first compound 0.0316 µM) was 31%. The viability, T/C (second compound 0.0949 µM, first compound 0.1 µM) was 26.7%, the viability, T/C (second compound 0.0949 µM, first compound 0.316 µM) was 19.2% and the viability, T/C (second compound 0.0949 µM, first compound 1 µM) was 21.6%. For the same compound, the viability, T/C (second compound 0.3 µM, first compound 0.00316 µM) was 25.5%, the viability, T/C (second compound 0.3 µM, first compound 0.01 µM) was 26.7% and the viability, T/C (second compound 0.3 µM, first compound 0.0316 µM) was 24.6%. The viability, T/C (second compound 0.3 µM, first compound 0.1 µM) was 23%, the viability, T/C (second compound 0.3 µM, first compound 0.316 µM) was 22.9% and the viability, T/C (second compound 0.3 µM, first compound 1 µM) was 21.6%.
